In PMC7587356, “High-Throughput Screening for Inhibitors of the SARS-CoV-2 Protease Using a FRET-Biosensor” (Molecules, 2020):
Read-outs that look alike come from different tables or passages of the source.

Molecular target: SARS-CoV-2 3CLpro (Severe acute respiratory syndrome coronavirus 2, UniProt P0DTD1)
Test: biochemical
Type: biochemical
Parameters: Replicate_1 / Replicate_2 / mean / mean (LOPAC_screen_w_protease): unit not given here
Details: for inhibition at 5 µM: 4 h
[1] = sheet LOPAC_screen_w_protease, LOPAC1280 primary screen at 5 µM, with protease, mean of the two replicates
[2] = sheet LOPAC_screen_w_protease, LOPAC1280 primary screen at 5 µM, with protease, replicate 1
[3] = sheet LOPAC_screen_w_protease, LOPAC1280 primary screen at 5 µM, with protease, replicate 2
[4] = LOPAC1280 primary screen with protease, 5 µM compound, mean of two replicates
[5] = LOPAC1280 primary screen with protease, 5 µM compound, replicate 1
[6] = LOPAC1280 primary screen with protease, 5 µM compound, replicate 2
[7] = sheet LOPAC_screen_w_protease, primary screen with protease, mean of two replicates, read-out: mean
[8] = sheet LOPAC_screen_w_protease, primary screen with protease, replicate 1, read-out: Replicate_1
[9] = sheet LOPAC_screen_w_protease, primary screen with protease, replicate 2, read-out: Replicate_2
[10] = LOPAC1280 primary screen with protease, 5 µM compound, replicate 1, read-out: Replicate_1 (LOPAC_screen_w_protease)
[11] = LOPAC1280 primary screen with protease, 5 µM compound, replicate 2, read-out: Replicate_2 (LOPAC_screen_w_protease)

## CS(=O)(=O)O.Cn1cc(C(F)(F)F)nc1-c1ccc(OCC(O)CNCCOc2ccc(O)c(C(N)=O)c2)cc1 (stereo not drawn) [CGP 20712A methanesulfonate]
[1]
  mean: 0.4402
[2]
  Replicate_1: 1.402
[3]
  Replicate_2: -0.5212

## CC(C)(CO)Cc1cc(C(C)(C)C)c(O)c(C(C)(C)C)c1 [CGP-7930]
Sheet LOPAC_screen_w_protease, LOPAC1280 at 5 µM, mean of two replicates
  mean: 1.164
Sheet LOPAC_screen_w_protease, LOPAC1280 at 5 µM, replicate 1
  Replicate_1: 0.8273
Sheet LOPAC_screen_w_protease, LOPAC1280 at 5 µM, replicate 2
  Replicate_2: 1.5

## CC(C)(C=O)Cc1cc(C(C)(C)C)c(O)c(C(C)(C)C)c1 [CGP-13501]
[4]
  mean (LOPAC_screen_w_protease): 1.552
[5]
  Replicate_1 (LOPAC_screen_w_protease): -0.1889
[6]
  Replicate_2 (LOPAC_screen_w_protease): 3.292

## CCn1cnc2c(Nc3cccc(Cl)c3)nc(N[C@@H]3CCCC[C@@H]3N)nc21.Cl [CGP-74514A hydrochloride]
[1]
  mean: 0.7839
[2]
  Replicate_1: 2.043
[3]
  Replicate_2: -0.4753

## CN1CCN(c2nc3cc(C(F)(F)F)ccc3n3cccc23)CC1.O=C(O)/C=C\C(=O)O [CGS-12066A maleate]
[1]
  mean: 0.5818
[2]
  Replicate_1: 1.428
[3]
  Replicate_2: -0.2648

## Nc1nc2ccc(Cl)cc2c2nc(-c3ccco3)nn12 [CGS-15943]
read-out: Replicate_1
  inhibition at 5 µM: 3.31%
read-out: Replicate_2
  inhibition at 5 µM: 3.81%
read-out: mean
  inhibition at 5 µM: 3.56%

## CCNC(=O)[C@H]1O[C@@H](n2cnc3c(N)nc(NCCc4ccc(CCC(=O)O)cc4)nc32)[C@H](O)[C@@H]1O.Cl [CGS-21680 hydrochloride]
Sheet LOPAC_screen_w_protease, primary screen of LOPAC1280 at 5 µM with protease, mean of the two replicates
  mean: 3.628
Sheet LOPAC_screen_w_protease, primary screen of LOPAC1280 at 5 µM with protease, replicate 1
  Replicate_1: 4.89
Sheet LOPAC_screen_w_protease, primary screen of LOPAC1280 at 5 µM with protease, replicate 2
  Replicate_2: 2.366

## C[C@H](Cc1ccc2c(c1)OC(C(=O)[O-])(C(=O)[O-])O2)NC[C@H](O)c1cccc(Cl)c1.[Na+].[Na+] [CL 316,243]
  Replicate_1 (LOPAC_screen_w_protease): 0.6829
  Replicate_2 (LOPAC_screen_w_protease): 2.815
  mean (LOPAC_screen_w_protease): 1.749

## N#Cc1cc2nc([O-])c([O-])nc2cc1[N+](=O)[O-].[Na+].[Na+] [CNQX disodium]
[1]
  mean: 0.7558
[2]
  Replicate_1: 2.8399
[3]
  Replicate_2: -1.328

## CCCCCCC(C)(C)c1ccc([C@@H]2C[C@H](O)CC[C@H]2CCCO)c(O)c1 [CP55940]
[7]
  inhibition at 5 µM: 2.22%
[8]
  inhibition at 5 µM: 1.74%
[9]
  inhibition at 5 µM: 2.71%

## CC1(C)CCC(NC(=O)[C@@H](N)CCC(=O)O)CC1 [CR 2249]
Sheet LOPAC_screen_w_protease, LOPAC1280 primary screen with protease, 5 µM compound, mean of the two replicates, read-out: mean
  inhibition at 5 µM: 5.2%
Sheet LOPAC_screen_w_protease, LOPAC1280 primary screen with protease, 5 µM compound, replicate 1, read-out: Replicate_1
  inhibition at 5 µM: 4.44%
Sheet LOPAC_screen_w_protease, LOPAC1280 primary screen with protease, 5 µM compound, replicate 2, read-out: Replicate_2
  inhibition at 5 µM: 5.96%

## Cc1cc(C)c(NC(=O)C[C@H](CC(=O)O)c2cccc3ccccc23)c(C(=O)N2CCC3(CCCC3)CC2)c1 [CR 2945]
[10]
  inhibition at 5 µM: 3.19%
[11]
  inhibition at 5 µM: 0.22%
[4]
  mean (LOPAC_screen_w_protease): 1.703

## CCCCCCCCCCCCCCCCCCNC(=O)OCC(COP(=O)([O-])OCC[n+]1ccsc1)OC (stereo not drawn) [CV-3988]
[4]
  mean (LOPAC_screen_w_protease): 1.326
[5]
  Replicate_1 (LOPAC_screen_w_protease): -0.07699
[6]
  Replicate_2 (LOPAC_screen_w_protease): 2.73

## O=C(c1ccc2c(c1)OCCO2)N1CCCCC1 [CX 546]
  Replicate_1: 1.108
  Replicate_2: -1.5724
  mean: -0.2323

## Cn1c(=O)c2c(ncn2C)n(C)c1=O [Caffeine]
[7]
  inhibition at 5 µM: 2.35%
[8]
  inhibition at 5 µM: 1.98%
[9]
  inhibition at 5 µM: 2.71%

## CNc1ccc2oc(C[C@H]3O[C@@]4(CC[C@H]3C)O[C@H]([C@H](C)C(=O)c3ccc[nH]3)[C@H](C)C[C@H]4C)nc2c1C(=O)O [Calcimycin]
Sheet LOPAC_screen_w_protease, primary screen with protease, compound at 5 µM, mean of two replicates, read-out: mean
  inhibition at 5 µM: 3.09%
Sheet LOPAC_screen_w_protease, primary screen with protease, compound at 5 µM, replicate 1, read-out: Replicate_1
  inhibition at 5 µM: 2.08%
Sheet LOPAC_screen_w_protease, primary screen with protease, compound at 5 µM, replicate 2, read-out: Replicate_2
  inhibition at 5 µM: 4.1%

## Clc1ccc(C(c2ccc(Cl)cc2)n2cc[n+](CC(OCc3ccc(Cl)cc3Cl)c3ccc(Cl)cc3Cl)c2)cc1 (stereo not drawn) [Calmidazolium chloride]
Sheet LOPAC_screen_w_protease, primary screen at 5 µM, mean of two replicates, read-out: mean (LOPAC screen with protease)
  inhibition at 5 µM: 9.31%
Sheet LOPAC_screen_w_protease, primary screen at 5 µM, replicate 1, read-out: Replicate_1 (LOPAC screen with protease)
  inhibition at 5 µM: 8.14%
Sheet LOPAC_screen_w_protease, primary screen at 5 µM, replicate 2, read-out: Replicate_2 (LOPAC screen with protease)
  inhibition at 5 µM: 10.5%

## CC1(C(=O)O)C2CCC(O2)C1(C)C(=O)O (stereo not drawn) [Cantharidic Acid]
[10]
  inhibition at 5 µM: 2.04%
[11]
  inhibition at 5 µM: 1.78%
LOPAC1280 primary screen with protease, 5 µM compound, mean of the two replicates
  mean (LOPAC_screen_w_protease): 1.914

## C[C@@]12C(=O)OC(=O)[C@]1(C)[C@H]1CC[C@@H]2O1 [Cantharidin]
read-out: Replicate_1
  inhibition at 5 µM: 1.95%
read-out: Replicate_2
  inhibition at 5 µM: 0.0268%
read-out: mean
  inhibition at 5 µM: 0.988%

## C[N+](C)(C)CCOC(N)=O [Carbachol]
[10]
  inhibition at 5 µM: 1.69%
[11]
  inhibition at 5 µM: 1.06%
[4]
  mean (LOPAC_screen_w_protease): 1.3763
